# In patent US20110268794A1, “METHODS AND MATERIALS FOR DELIVERING BILE ACIDS” (priority 2009, published 2011):
# Experiments:
# Type in all cases: in vivo, human
# healthy volunteers [1] = experiment: Adverse events, healthy volunteers (Example 1); details: n=20
# Experimental: This was a double-blind, placebo-controlled, randomized study evaluating the effects of sodium chenodeoxycholate (CDC) or placebo orally administered once daily for four days in healthy volunteers. An independent statistician generated the randomization code. Clinical and laboratory study personnel were blinded throughout the study until data were locked and analyzed. Safety monitoring was conducted throughout the study. Three groups (n=20 each) were randomized to oral placebo, 500 mg or 1000 mg CDC daily (in pH-sensitive, methacrylate-coated capsules), each for a period of 4 days.
# female IBS-C patients [2] = experiment: Bowel function by daily questionnaires, female IBS-C patients (Example 2)
# Experimental: (§1) The following study was performed to evaluate the effects of ileocolonic delivery of sodium chenodeoxycholate (CDC) on gastrointestinal (GI) and colonic transit and bowel function in constipation-predominant irritable bowel syndrome (IBS-C). A double-blind, placebo-controlled study evaluated effects of once-daily CDC for 4 days in 36 female IBS-C patients (mean age 41.80±1.62 y). Patients were randomized to oral placebo, 500 mg or 1000 mg CDC delivered to the ileocolonic region in pH-sensitive, methacrylate-coated capsules. Fasting serum 7α-hydroxy-4-cholesten-3-one (7αC4) was measured to assess for baseline abnormalities in bile acid synthesis. […] Treatment effects were compared by ANCOVA with BMI as a covariate, and each CDC dose against placebo by Dunnett's test.
# healthy volunteers [3] = experiment: Daily stool diaries (bowel function), healthy volunteers (Example 1); details: for Ease of passage (scale 1-7) / Stool frequency per day / Stool consistency by Bristol Stool Form Scale: N = 20, mean ± SEM; for Stool frequency per day: overall p < 0.001; for Stool consistency by Bristol Stool Form Scale: scale 1 hard lumps to 7 watery
# Experimental: This was a double-blind, placebo-controlled, randomized study evaluating the effects of sodium chenodeoxycholate (CDC) or placebo orally administered once daily for four days in healthy volunteers. Three groups (n=20 each) were randomized to oral placebo, 500 mg or 1000 mg CDC daily (in pH-sensitive, methacrylate-coated capsules), each for a period of 4 days. During at least 3 days of the baseline period and the 4 days of treatment period, each patient noted each bowel movement with the exact time and with the description of stool consistency according to the BSFS (ranging from 1=“hard lumps” to 7=“watery”), and the ease of passage (ranging from 1=“manual disimpaction” to 7=“incontinence”), and answered whether or not they felt they had completely emptied their bowels (1=“yes” and 0=“no”) (Bouras et al., Gastroenterology, 120:354-60 (2001)). The diaries contained values for stool consistency, stool frequency, ease of passage and sense of completely emptying their bowels.
# female IBS-C patients [4] = experiment: Side effects, female IBS-C patients (Example 2)
# Experimental: as §1
# [5] = CDC 500 mg once daily 4 days, N = 11, mean ± SEM
# [6] = CDC 1000 mg once daily 4 days, N = 12, mean ± SEM
structure (smiles),measurement,setting,value
"C[C@H](CCC(=O)O)[C@H]1CC[C@H]2[C@@H]3[C@H](O)C[C@@H]4C[C@H](O)CC[C@]4(C)[C@H]3CC[C@]12C [CDC, sodium chenodeoxycholate]",Percent of participants with lower abdo bloating,healthy volunteers [1]; CDC 500 mg once daily 4 days,5%
same,Percent of participants with lower abdo pain/cramps,healthy volunteers [1]; CDC 500 mg once daily 4 days,15%
same,Percent of participants with muscle aches,healthy volunteers [1]; CDC 500 mg once daily 4 days,5%
same,Percent of participants with nausea,healthy volunteers [1]; CDC 500 mg once daily 4 days,5%
same,Percent of participants with sensation of warmth,healthy volunteers [1]; CDC 500 mg once daily 4 days,5%
same,Percent of participants with sweating,healthy volunteers [1]; CDC 500 mg once daily 4 days,5%
same,"Percent of participants dizzy, light-headed",healthy volunteers [1]; CDC 1000 mg once daily 4 days,5%
same,Percent of participants with URI,healthy volunteers [1]; CDC 1000 mg once daily 4 days,10%
same,Percent of participants with diarrhea,healthy volunteers [1]; CDC 1000 mg once daily 4 days,75%
same,Percent of participants with gas,healthy volunteers [1]; CDC 1000 mg once daily 4 days,5%
same,Percent of participants with headache,healthy volunteers [1]; CDC 1000 mg once daily 4 days,25%
same,Percent of participants with loose stools,healthy volunteers [1]; CDC 1000 mg once daily 4 days,20%
same,Percent of participants with lower abdo bloating,healthy volunteers [1]; CDC 1000 mg once daily 4 days,0%
same,Percent of participants with lower abdo pain/cramps,healthy volunteers [1]; CDC 1000 mg once daily 4 days,75%
same,Percent of participants with muscle aches,healthy volunteers [1]; CDC 1000 mg once daily 4 days,0%
same,Percent of participants with nausea,healthy volunteers [1]; CDC 1000 mg once daily 4 days,20%
same,Percent of participants with sensation of warmth,healthy volunteers [1]; CDC 1000 mg once daily 4 days,5%
same,Percent of participants with sweating,healthy volunteers [1]; CDC 1000 mg once daily 4 days,5%
same,Stool consistency (Bristol Scale),female IBS-C patients [2]; [5],3.58 ± 0.33
same,Stool frequency per day,female IBS-C patients [2]; [5],1.22 ± 0.19 per day
same,Stool consistency (Bristol Scale),female IBS-C patients [2]; [6],3.47 ± 0.23
same,Stool frequency per day,female IBS-C patients [2]; [6],1.27 ± 0.13 per day
same,Overall treatment effect on sense of incomplete evacuation,"healthy volunteers [3]; 500 mg or 1000 mg once daily 4 days vs placebo, healthy volunteers, p=0.02",significant overall treatment effects
same,Ease of passage (scale 1-7),healthy volunteers [3]; CDC 500 mg once daily 4 days,4.1 ± 0.06
same,Stool frequency per day,healthy volunteers [3]; CDC 500 mg once daily 4 days,1.50 ± 0.18 per day
same,Stool consistency by Bristol Stool Form Scale,healthy volunteers [3]; CDC 500 mg once daily 4 days,4.29 ± 0.19
same,Ease of passage (scale 1-7),healthy volunteers [3]; CDC 1000 mg once daily 4 days,4.3 ± 0.06
same,Stool frequency per day,healthy volunteers [3]; CDC 1000 mg once daily 4 days,2.01 ± 0.15 per day
same,Stool consistency by Bristol Stool Form Scale,healthy volunteers [3]; CDC 1000 mg once daily 4 days,4.80 ± 0.15
same,Safety issues,female IBS-C patients [4]; 500 mg or 1000 mg once daily 4 days,No safety issues were identified
same,Patients with diarrhea,female IBS-C patients [4]; CDC 500 mg once daily 4 days,18%
same,Patients with lower abdominal cramps/pain,female IBS-C patients [4]; CDC 500 mg once daily 4 days,45%
same,Patients with diarrhea,female IBS-C patients [4]; CDC 1000 mg once daily 4 days,17%
same,Patients with lower abdominal cramps/pain,female IBS-C patients [4]; CDC 1000 mg once daily 4 days,42%
